Measurements from article PMC6094398, “New tools for evaluating protein tyrosine sulfation: tyrosylprotein sulfotransferases (TPSTs) are novel targets for RAF protein kinase inhibitors” (Biochemical Journal, 2018).

Experiments:
[1] = target: T1, human TPST1 (Homo sapiens, UniProt O60507); experiment: GST-CC4-tide tyrosine sulfation by TPST1, immunoblotting with monoclonal sulfotyrosine antibody; type: biochemical; settings: GST-CC4-tide 1 µg, 10 µM PAPS, increasing concentrations of inhibitor
T1 construct: human TPST1 (residues Lys43–Leu360) and TPST2 (residues Gly43–Leu359) enzymes lacking the transmembrane domains; made in house; host or cells: E. coli BL21 (DE3) pLysS
T1 sequence (O60507 43-360): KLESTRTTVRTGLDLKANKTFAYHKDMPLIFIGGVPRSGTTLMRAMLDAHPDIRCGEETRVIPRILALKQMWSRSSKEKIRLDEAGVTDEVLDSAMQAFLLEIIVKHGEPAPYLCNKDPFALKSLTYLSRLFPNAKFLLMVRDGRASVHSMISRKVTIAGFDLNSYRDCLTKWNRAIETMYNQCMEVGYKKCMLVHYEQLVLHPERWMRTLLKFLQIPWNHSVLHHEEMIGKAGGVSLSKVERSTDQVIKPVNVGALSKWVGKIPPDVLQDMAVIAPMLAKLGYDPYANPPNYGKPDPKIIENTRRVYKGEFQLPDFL
Procedure: After the assay, proteins were denatured in Laemmli sample buffer, heated at 95°C for 5 min and then analysed by SDS–PAGE with 10% (v/v) polyacrylamide gels. Gels were stained and destained using a standard Coomassie Brilliant Blue protocol. To evaluate protein sulfation and phosphorylation by immunoblotting, standard western blotting procedures were followed using monoclonal anti-sulfotyrosine antibody clone Sulfo-1C-A2 (Millipore) generated using a phage display procedure and sulfotyrosine selection peptide antigens in the presence of appropriate positive and negative controls, and modifications visualised using the ECL reagent.

[2] = target: T2, human TPST2 (Homo sapiens, UniProt O60704); experiment: Differential scanning fluorimetry (thermal shift) assay with TPST2; type: binding; settings: DSF, TPST2 5 µM, 10 µM rottlerin
T2 construct: TPST2 (residues Gly43–Leu359) enzymes lacking the transmembrane domains; made in house; host or cells: E. coli BL21 (DE3) pLysS
T2 sequence (O60704 43-359): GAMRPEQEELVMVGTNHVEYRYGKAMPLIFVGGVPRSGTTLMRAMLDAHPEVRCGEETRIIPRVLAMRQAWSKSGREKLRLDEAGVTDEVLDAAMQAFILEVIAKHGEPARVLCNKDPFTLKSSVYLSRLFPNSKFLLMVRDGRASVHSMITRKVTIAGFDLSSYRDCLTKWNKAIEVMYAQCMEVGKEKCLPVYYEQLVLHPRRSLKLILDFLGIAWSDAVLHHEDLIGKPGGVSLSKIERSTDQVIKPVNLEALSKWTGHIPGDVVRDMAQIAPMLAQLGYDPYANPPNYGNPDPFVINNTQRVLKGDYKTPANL

[3] = target: T2, human TPST2; experiment: EZ Reader II microfluidic mobility-shift CC4-tide sulfation assay, TPST2; type: biochemical
[4] = system: heparin sulfate 2-O sulfotransferase HS2ST; set-up: method as in PMID 29934491; settings: cited from earlier work
[5] = target: T1, human TPST1; experiment: EZ Reader II microfluidic mobility-shift CC4-tide sulfation assay, TPST1; type: biochemical; settings: 10 µM PAPS
[6] = target: T1, human TPST1; experiment: Differential scanning fluorimetry (thermal shift) assay with TPST1; type: binding; settings: DSF, TPST1 5 µM, 10 µM rottlerin

## CC(=O)c1c(O)c(C)c(O)c(Cc2c(O)c3c(c(C(=O)/C=C/c4ccccc4)c2O)OC(C)(C)C=C3)c1O [Rottlerin]
[1]
  Inhibition of GST-CC4-tide tyrosine sulfation by TPST1 (immunoblot, in words): dose-dependent inhibition
[2]
  Thermal shift of TPST2 (in words): positive
[3]
  IC50: 1140 nM
[4]
  HS2ST inhibition in vitro (in words): inhibitory activity
[5]; TPST1 IC50 (rottlerin dose-response), Fig 6A, CC4-tide, normalised to 1% DMSO
  IC50: 500 nM
[5]; TPST1 IC50, previously described compounds, Fig 6C, CC4-tide, normalised to 1% DMSO
  IC50: ~1000 nM
[5]; TPST1 estimated IC50, RAF kinase inhibitors, Fig 8B, TPST1 0.1 µM pre-incubated with compound
  IC50: 600 nM
[6]
  Thermal shift of TPST1 (in words): positive
